The test system of series [1] is Klebsiella pneumoniae. The series is described as follows: MIC, compound in combination with a second agent (broth microdilution). The format is cell-based. The following applies: 1:1 (wt:wt) combination with Rifampicin, MIC = total drug concentration. In short, it runs like this: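 MIC values express combined concentration of test compound plus partner agent such as rifampicin, mixed at equal mass (1:1 w/w, salt-form weight). Direct colony suspensions at 0.5 McFarland, up to four strains per species, tested in duplicate; >2-fold disagreement invalid, otherwise lower value or mode of repeats reported.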

Another series relates to Escherichia coli. The series can be described thus: MIC, sole activity (no second agent). Type of series: cell-based. The settings on record: in the absence of Rifampicin. In a few lines: (§1)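 Up to four strains per species were tested in cation-adjusted Mueller-Hinton broth, with inoculum made by direct colony suspension from 18-24 hour Mueller-Hinton agar plates, adjusted to 0.5 McFarland. Duplicates differing by under 2-fold gave the lower value; greater spread voided the run. Values are relative to Polymyxin B.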

The test system of the next series is Pseudomonas aeruginosa. The series can be described thus: MIC, sole activity (no second agent). Type of series: cell-based. The settings on record: in the absence of Rifampicin. In a few lines:
as §1

In series [2] the test system is Klebsiella pneumoniae. The series is described as follows: MIC, sole activity (no second agent). Type of series: cell-based. The settings on record: in the absence of Rifampicin. In a few lines:
as §1

For series [3] the following is noted: rats, 8 mg/kg BID regimen, seven days, compared to Colistin at the same dose regimen. How it is done:
After one week acclimatisation, male Sprague-Dawley rats were surgically prepared with a jugular cannula and were housed individually, as required, either in pre-assigned housing cages or metabolic cages. Colistin and the Example Compounds were prepared in saline.
Compounds were introduced via the jugular cannula twice a day 7 hours apart for seven days. Each dose was increased progressively for three days up to the top dose that was then administered until termination of the study. Twenty-four hour urine collection (on ice) was performed at pre-dose and on days 4 and 7. The dose regimen is set out in Table 10 below.
The doses in the table are indicated in mg drug base/kg (free base).
The activity in urine of the N-acetyl-beta-D-glucosaminidase (NAG) was determined spectrophotometrically using the NAG assay kit from Roche Applied Science. Biomarkers of kidney injury were determined using the Kidney Injury Panel II from the Multi-Spot® Assay System (Meso Scale Discovery).

In series [4] the test system is Klebsiella pneumoniae ATCC10031. The following applies: 10 mg/kg/day, neutropenic mice thigh infection. How it is done:
At 1 h, the CFU count was determined from 5 mice and the remaining mice (five per group) were treated with a subcutaneous injection of the drug at +1 and 6 hr post-infection.
Twenty-four hours after infection, the mice were euthanized humanely. The muscle of the right thigh of each animal was harvested, homogenized, serially diluted and plated on Brain Heart Infusion agar+0.5% charcoal (w/v) for CFU determination. Decrease of the total CFU of right thigh as compared to control counts at 24 h post-infection was determined for each dose group.

Bridge positions count the residues as written; N and C are the ends. Square brackets hold non-standard residues; d marks the D form. Peptide text beside a SMILES is read from it. ξ: configuration not given here. Thr(3ξ) = CC(O)[C@H](N)C(=O)O; Dab = NCC[C@H](N)C(=O)O; GABA = NCCCC(=O)O

For `CC(C)C[C@@H]1NC(=O)[C@@H](Cc2ccccc2)NC(=O)[C@H](CCN)NC(=O)[C@@H](NC(=O)[C@H](CCN)NC(=O)[C@@H](NC(=O)CCCN)C(C)O)CCNC(=O)[C@H](C(C)O)NC(=O)[C@H](CCN)NC(=O)[C@H](CCN)NC1=O` (stereo partly shown) [Example 4, 4-Aminobutanoyl polymyxin B nonapeptide] (H-[GABA][Thr(3ξ)][Dab][Dab][Dab][dF]L[Dab][Dab][Thr(3ξ)]; lactam 4-C), the “MIC K. pneumoniae ATCC-BAA-2146” value in the series on Klebsiella pneumoniae [1] (strain ATCC-BAA-2146) came out at 2 micrograms/mL. Besides, the “MIC K. pneumoniae CCUG-59348” value is reported as 16 micrograms/mL with Klebsiella pneumoniae [1] (strain CCUG-59348) and over 32 micrograms/mL in the series on Klebsiella pneumoniae [2] (strain CCUG-59348). Also, the “MIC K. pneumoniae NCTC 13438” value with Klebsiella pneumoniae [1] (strain NCTC 13438) was 0.5 micrograms/mL. Besides, the “MIC E. coli ATCC25922” value with Escherichia coli (strain ATCC25922) was determined as 2 micrograms/mL. Further, in the series with Escherichia coli (strain NCTC9001), the “MIC E. coli NCTC9001” value is on record as 8 micrograms/mL. Further, in the series on Pseudomonas aeruginosa (strain ATCC27853), the “MIC P. aeruginosa ATCC 27853” value stood at 0.25 micrograms/mL. In addition, in the series with Pseudomonas aeruginosa (strain ATCCCRM-9027), the “MIC P. aeruginosa ATCCCRM-9027” value was 0.125 micrograms/mL. Besides, the “MIC K. pneumoniae ATCC 4352” value with Klebsiella pneumoniae [2] (strain ATCC 4352) came out at 1 micrograms/mL. Besides, the “MIC K. pneumoniae ATCC-BAA2146” value in the series on Klebsiella pneumoniae [2] (strain ATCC-BAA2146) is on record as over 32 micrograms/mL. The “MIC K. pneumoniae NCTC-13438” value with Klebsiella pneumoniae [2] (strain NCTC-13438) is given as over 32 micrograms/mL. For the same compound, in series [3], the “levels of the renal biomarkers NAG, albumin and cystatin C in urine” value is “significantly reduced levels”. The “reduction in bacterial counts” value in series [4] is reported as “approx. 2 log10”.

(Values after patent publication US10407467B2, “Polymyxin derivatives and their use in combination therapy together with different antibiotics” (priority 2013, dated 2019).)
